From patent US20070043006A1, “Formulations of non-steroidal anti-inflammatory agents to treat pathologic ocular angiogenesis” (priority 2003, published 2007)

System: retinal neovascularization
Assay: rat pup model of retinopathy of prematurity (oxygen-induced retinopathy)
Format: in vivo
Details: for inhibition of retinal neovascularization: newborn rat pups exposed to varying oxygen
Description: Anecortave acetate was tested for its angiostatic efficacy in a rat pup model of retinopathy of prematurity (Penn, at al., Investigative Ophthalmology & Visual Science, “The Effect of an Angiostatic Steroid on Neovascularization in a Rat Model of Retinopathy of Prematurity,” Vol. 42(1):283-290, January 2001). Newborn rat pups were placed in an atmosphere of varying oxygen content. The rats received a single intravitreal injection of vehicle or anecortave acetate (500 μg) upon return to room air (day 14) or 2 days later (day 16). There was significant retinal neovascularization in the rats that received vehicle injections.

## CC(=O)OCC(=O)[C@@]1(O)CC[C@H]2[C@@H]3CCC4=CC(=O)CC[C@]4(C)C3=CC[C@@]21C [Anecortave acetate, 4,9(11)-pregnadien-17α,21-diol-3,20dione-21-acetate]
Local administration, rat model of oxygen-induced retinopathy, FIG. 1
  preretinal neovascularization (neovascular score): inhibits preretinal neovascularization
Single intravitreal injection 500 μg 2 days after return to room air (day 16)
  inhibition of retinal neovascularization: 50%
Single intravitreal injection 500 μg upon return to room air (day 14)
  inhibition of retinal neovascularization: 66%
